Reference: patent publication US7659404B2, “Broad spectrum 2-(substituted-amino)-benzothiazole sulfonamide HIV protease inhibitors” (Tibotec Pharmaceuticals Ltd., priority 2001, dated 2010)

Assays:
virus strain S (R13080) = assay: microbe, parasite or virus in culture; assay type: cell-based, HIV; conditions: FR=EC50(mutant strain)/EC50(HIV-1 strain LAI); strain S
Method in brief: (§1)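 HIV-infected MT4 cells were incubated five days with inhibitor, and viability was read by MTT reduction at 540 nm. EC50/EC90 are the concentrations protecting 50%/90% of cells from viral cytopathic effect. Fold resistance is EC50 against the clinical isolate divided by EC50 against HIV-1 LAI.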

virus strain F (R13025) = assay: microbe, parasite or virus in culture; assay type: cell-based, HIV; conditions: FR=EC50(mutant strain)/EC50(HIV-1 strain LAI); strain F
Method in brief: as §1

[1] = test system: clinically isolated HIV strain H; assay type: cell-based; conditions: FR=EC50(mutant strain)/EC50(HIV-1 strain LAI)
Method: (§2) HIV- or mock-infected MT4 cells were incubated for five days in the presence of various concentrations of the inhibitor. […] Cell viability is measured by measuring the concentration of MTT, a yellow, water soluble tetrazolium dye that is converted to a purple, water insoluble formazan in the mitochondria of living cells only. Upon solubilization of the resulting formazan crystals with isopropanol, the absorbance of the solution is monitored at 540 nm. The values correlate directly to the number of living cells remaining in the culture at the completion of the five day incubation. The inhibitory activity of the compound was monitored on the virus-infected cells and was expressed as EC50 and EC90. These values represent the amount of the compound required to protect 50% and 90%, respectively, of the cells from the cytopathogenic effect of the virus. The toxicity of the compound was measured on the mock-infected cells and was expressed as CC50, which represents the concentration of compound required to inhibit the growth of the cells by 50%. The selectivity index (SI) (ratio CC50/EC50) is an indication of the selectivity of the anti-HIV activity of the inhibitor.
(§3) Because of the increasing emergence of drug resistant HIV strains, the present compounds were tested for their potency against clinically isolated HIV strains harboring several mutations.
(§4) As a measure of the broad spectrum activity of the present compounds, the fold resistance (FR) defined as FR=EC50(mutant strain)/EC50(HIV-1 strain LAI).

[2] = test system: clinically isolated HIV strain J; assay type: cell-based; conditions: FR=EC50(mutant strain)/EC50(HIV-1 strain LAI)
Method: as §2, §3, §4

[3] = test system: clinically isolated HIV strain O; assay type: cell-based; conditions: FR=EC50(mutant strain)/EC50(HIV-1 strain LAI)
Method: as §2, §3, §4

[4] = test system: clinically isolated HIV strain I; assay type: cell-based; conditions: FR=EC50(mutant strain)/EC50(HIV-1 strain LAI)
Method: as §2, §3, §4

[5] = test system: clinically isolated HIV strain T; assay type: cell-based; conditions: FR=EC50(mutant strain)/EC50(HIV-1 strain LAI)
Method: as §2, §3, §4

Row | Compound | fold resistance (FR), strain S (virus strain S (R13080)) | fold resistance (FR), strain F (virus strain F (R13025)) | fold resistance (FR), strain H [1] | fold resistance (FR), strain J [2] | fold resistance (FR), strain O [3] | fold resistance (FR), strain I [4] | fold resistance (FR), strain T [5]
1 | Cc1cccc(C)c1OCC(=O)N[C@@H](Cc1ccccc1)[C@H](O)CN(CC(C)C)S(=O)(=O)c1ccc2nc(NCCCN(C)C)sc2c1 [Compound 53] | 3.8 | 2.1 | 0.6 | 1.4 | 1.6 | 1.3 | 49.8
2 | CC(=O)N(C)c1nc2ccc(S(=O)(=O)N(CC(C)C)C[C@@H](O)[C@H](Cc3ccccc3)NC(=O)OCc3cccnc3)cc2s1 [Compound 81] | 121.0 | 106.8 | 5.6 | 29.6 | 20.4 | 6.1 | 387.6
3 | CC(C)CN(C[C@@H](O)[C@H](Cc1ccccc1)NC(=O)OCc1cncs1)S(=O)(=O)c1ccc2nc(NCCN3CCNCC3)sc2c1 [Compound 57] | 1.6 | 1.3 | 1.6 | 1.3 | 1.3 | 1.3 | 9.0
4 | CC(C)CN(C[C@@H](O)[C@H](Cc1ccccc1)NC(=O)OCc1cncs1)S(=O)(=O)c1ccc2nc(NCCN3CCCC3)sc2c1 [Compound 49] | 17.8 | 12.8 | 3.6 | 5.5 | 3.9 | 2.9 | 114.0
5 | CNCCNc1nc2ccc(S(=O)(=O)N(CC(C)C)C[C@@H](O)[C@H](Cc3ccccc3)NC(=O)O[C@H]3CO[C@H]4OCC[C@H]43)cc2s1 [Compound 23] | 1.1 | 1.1 | 1.2 | 1.0 | 0.9 | 1.0 | 1.2
6 | CC(=O)N(C)c1nc2ccc(S(=O)(=O)N(CC(C)C)C[C@@H](O)[C@H](Cc3ccccc3)NC(=O)c3cccc(N)c3C)cc2s1 [Compound 82] | 17.9 | 13.8 | 5.0 | 5.5 | 8.0 | 4.4 | 214.1
7 | CC(C)CN(C[C@@H](O)[C@H](Cc1ccccc1)NC(=O)OCc1cncs1)S(=O)(=O)c1ccc2nc(NCCN3CCCC3)sc2c1.O=C(O)C(F)(F)F [Compound 50] | 27.9 | 8.6 | 1.4 | 7.0 | 3.5 | 1.7 | 165.5
8 | CC(=O)N(CCN1CCCC1)c1nc2ccc(S(=O)(=O)N(CC(C)C)C[C@@H](O)[C@H](Cc3ccccc3)NC(=O)OCc3cccnc3)cc2s1 [Compound 71] | 79.6 | 29.6 | 2.7 | 7.0 | 5.0 | 2.2 | 321.5
9 | Cc1c(N)cccc1C(=O)N[C@@H](Cc1ccccc1)[C@H](O)CN(CC(C)C)S(=O)(=O)c1ccc2nc(NCCN3CCCC3)sc2c1 [Compound 45] | 19.9 | 17.3 | 1.2 | 1.1 | 1.3 | 4.0 | 103.0
10 | CC(C)CN(C[C@@H](O)[C@H](Cc1ccccc1)NC(=O)O[C@H]1CCOC1)S(=O)(=O)c1ccc2nc(NCCN3CCCC3)sc2c1.O=C(O)C(F)(F)F [Compound 68] | 180.7 | 65.2 | 7.3 | 3.9 | 3.5 | 2.4 | 775.2
11 | Cc1cccc(C)c1OCC(=O)N[C@@H](Cc1ccccc1)[C@H](O)CN(CC(C)C)S(=O)(=O)c1ccc2nc(NCCN3CCNCC3)sc2c1 [Compound 59] | 4.7 | 2.3 | 1.2 | 1.7 | 2.0 | 1.2 | 22.2
12 | Cc1c(N)cccc1C(=O)N[C@@H](Cc1ccccc1)[C@H](O)CN(CC(C)C)S(=O)(=O)c1ccc2nc(NCCN(C)C)sc2c1 [Compound 39] | 16.5 | 19.7 | 2.3 | 2.2 | 1.7 | 2.4 | 249.9
13 | Cc1cc(Br)ccc1C(=O)N[C@@H](Cc1ccccc1)[C@H](O)CN(CC(C)C)S(=O)(=O)c1ccc2nc(NC(=O)CN3CCCC3)sc2c1 [Compound 70] | 10.4 | 4.7 | 3.1 | 3.3 | 3.2 | 3.7 | 145.1
14 | CC(=O)N(C)c1nc2ccc(S(=O)(=O)N(CC(C)C)C[C@@H](O)[C@H](Cc3ccccc3)NC(=O)c3cccc(O)c3C)cc2s1 [Compound 83] | 132.1 | 106.6 | 4.6 | 8.4 | 1.5 | 7.4 | 438.6
15 | CC(=O)N(C)c1nc2ccc(S(=O)(=O)N(CC(C)C)C[C@@H](O)[C@H](Cc3ccccc3)NC(=O)COc3c(C)cccc3C)cc2s1 [Compound 77] | 11.6 | 8.9 | 2.2 | 11.0 | 11.7 | 8.3 | 144.7
16 | Cc1cccc(C)c1OCC(=O)N[C@@H](Cc1ccccc1)[C@H](O)CN(CC(C)C)S(=O)(=O)c1ccc2nc(NCCN3CCCC3)sc2c1 [Compound 46] | 7.1 | 4.7 | 1.3 | 2.8 | 3.2 | 3.3 | 44.4
